From patent US8883771B2, “Bivalent inhibitors of IAP proteins and therapeutic methods using the same” (The Regents of the University of Michigan, priority 2012, dated 2014)

Key:
[1] = test system: SK-OV-3 ovarian cancer cell line; experiment: Inhibition of cell growth in SK-OV-3 ovarian cancer cell line; format: cell-based, human
[2] = biological target: cIAP-2 BIR3 (residues 238-349) (Homo sapiens (Human), UniProt Q13489); experiment: Fluorescence polarization (FP) based competitive binding assay, cIAP-2 BIR3; settings: FP competitive assay, Smac-2F probe; read-out: Binding Affinities IC50 (nM) cIAP2 Protein
Protocol: (§1) For cIAP-1 BIR3 and cIAP-2 BIR3 assays, a fluorescently labeled Smac mimetic (Smac-2F) was used as the fluorescent probe. The Kd values of Smac-2F to cIAP-1 BIR3 and cIAP-2 BIR3 were determined by monitoring the total fluorescence polarization of mixtures composed with the fluorescent probe at a fixed concentration and proteins with increasing concentrations up to full saturation. Fluorescence polarization values were measured using the Infinite M-1000 plate reader (Tecan U.S., Research Triangle Park, N.C.) in Microfluor 2 96-well, black, round-bottom plates (Thermo Scientific). To each well, 1 nM of SMAC-2F and increasing concentrations of protein were added to a final volume of 125 μl in the assay buffer (100 mM potassium phosphate, pH 7.5, 100 μg/ml bovine γ-globulin, 0.02% sodium azide, Invitrogen, with 4% DMSO). Plates were incubated at room temperature for 1-2 hours and mixed with gentle shaking to assure equilibrium. […] Equilibrium dissociation constants (Kd) were then calculated by fitting the sigmoidal dose-dependent FP increases as a function of protein concentrations using Graphpad Prism 5.0 software (Graphpad Software, San Diego, Calif.).
(§2) Mixtures of 5 μl of the tested compounds in DMSO and 120 μl of preincubated protein/tracer complex in the assay buffer (100 mM potassium phosphate, pH 7.5, 100 μg/ml bovine γ-globulin, 0.02% sodium azide, Invitrogen) were added into assay plates and incubated at room temperature for 2 hours with gentle shaking. Final concentrations of proteins and probes were 3 nM and 1 nM, 5 nM and 1 nM for assays for cIAP-1 BIR3 and cIAP-2 BIR3, respectively. […] FP values were measured as described above. IC50 values were determined by nonlinear regression fitting of the competition curves. The Ki values of competitive inhibitors were calculated using the derived equation described previously, based upon the measured IC50 values, the Kd values of the probe to different proteins, and the concentrations of the proteins and probes in the competitive assays.

[3] = test system: MDA-MB-231 breast cancer cell line; experiment: Inhibition of cell growth in MDA-MB-231 breast cancer cell line; format: cell-based, human
[4] = biological target: cIAP1-BIR3 (residues 253-363) (Homo sapiens (Human), UniProt Q13490); experiment: Fluorescence polarization (FP) based competitive binding assay, cIAP1-BIR3; settings: Smac-2F probe, read-out: Binding Affinities IC50 (nM) cIAP1 Protein
Protocol: as §1, §2

[5] = biological target: XIAP linker-BIR2-BIR3 (residues 120-356) (Homo sapiens (Human), UniProt P98170); experiment: Fluorescence polarization (FP) based competitive binding assay, XIAP linker-BIR2-BIR3; settings: FP competitive assay, Smac-1F probe; read-out: Binding Affinities IC50 (nM) XIAP Protein
Protocol: as §1, §2
The FP-based assay for XIAP linker-BIR2-BIR3 protein was performed with the same procedures. In this assay, a bivalent fluorescently tagged peptidic Smac mimetic (Smac-1F) was used as the fluorescent probe whose Kd value to XIAP linker-BIR2-BIR3 was determined similarly through the saturation experiments. 0.01% of Triton X-100 was added in the assay buffer to achieve stable fluorescence and polarization value of the dimeric fluorescent probe. Final protein and probe concentrations utilized in the competitive assay were 3 nM and 1 nM, respectively.

[6] = test system: MDA-MB-231 xenograft; experiment: Antitumor activity in the MDA-MB-231 xenograft model in nude mice; format: in vivo; settings: 3 mg/kg, weekly dose for 4 weeks (qwk×4, iv), start at average tumor volume 80 mm^3
Protocol: Treatments started when the tumors reached an average volume of 80 mm^3 Example 24 was given intravenously, weekly dose for 4 weeks (qwk×4, iv) at 10 mg/kg. Example 2 was given weekly dose for 4 weeks (qwk×4, iv) at 3 mg/kg. Control treatment was given vehicle control. Each group has 8-10 mice and each mouse has one tumor.

[7] = Homo sapiens, SK-OV-3, SK-OV-3 ovarian cancer cell line
[8] = Homo sapiens, MDA-MB-231, MDA-MB-231 breast cancer cell line
[9] = Homo sapiens, SK-OV-3 ovarian cancer cell line
[10] = Homo sapiens, MDA-MB-231 breast cancer cell line

IC50 [1, 9] [nM]	IC50 [3, 10] [nM]	SMILES	IC50 [1, 7] [nM]	IC50 [2] [nM]	IC50 [3, 8] [nM]	IC50 [4] [nM]	IC50 [5] [nM]	IC50 ([1]; SK-OV-3 ovarian cancer cell line) [nM]	IC50 ([3]; MDA-MB-231 breast cancer cell line) [nM]	Antitumor activity (mean tumor volume) [6]
–	–	CN[C@@H](C)C(=O)N[C@H]1CN(C(=O)NCCCCCCNC(=O)N2CC[C@H]3CC[C@@H](C(=O)N[C@@H]4CCC[C@@H]4c4ccccc4)N3C(=O)[C@@H](NC(=O)[C@H](C)NC)C2)CC[C@H]2CCC(C(=O)N[C@@H]3CCC[C@@H]3c3ccccc3)N2C1=O (stereo in doubt) [Example 44]	< 1000	< 3000	< 1000	< 1000	< 1000	–	–	–
< 1000	< 1000	CN[C@@H](C)C(=O)N[C@H]1CN(S(=O)(=O)CC/C=C/CCS(=O)(=O)N2CC[C@H]3CC[C@@H](C(=O)NC(c4ccccc4)c4ccccc4)N3C(=O)[C@@H](NC(=O)[C@H](C)NC)C2)CC[C@H]2CCC(C(=O)NC(c3ccccc3)c3ccccc3)N2C1=O (stereo partly drawn) [Example 7]	–	< 300	–	< 300	< 10	–	–	–
–	–	CN[C@@H](C)C(=O)N[C@H]1CN(C(=O)NCCCCCCNC(=O)N2CC[C@H]3CC[C@@H](C(=O)NC(c4ccccc4)c4ccccc4)N3C(=O)[C@@H](NC(=O)[C@H](C)NC)C2)CC[C@H]2CCC(C(=O)NC(c3ccccc3)c3ccccc3)N2C1=O (stereo partly drawn) [Example 13]	< 100	< 300	< 100	< 300	< 30	–	–	–
< 1000	< 1000	CN[C@@H](C)C(=O)N[C@H]1CN(S(=O)(=O)CCCCCCCCS(=O)(=O)N2CC[C@H]3CC[C@@H](C(=O)NC(c4ccccc4)c4ccccc4)N3C(=O)[C@@H](NC(=O)[C@H](C)NC)C2)CC[C@H]2CCC(C(=O)NC(c3ccccc3)c3ccccc3)N2C1=O (stereo partly drawn) [Example 10]	–	< 100	–	< 100	< 10	–	–	–
–	–	CN[C@@H](C)C(=O)N[C@H]1CN(C(=O)NCCCCCCNC(=O)N2CC[C@H]3CC[C@@H](C(=O)N[C@H]4CCCC[C@@H]4c4ccccc4)N3C(=O)[C@@H](NC(=O)[C@H](C)NC)C2)CC[C@H]2CCC(C(=O)N[C@H]3CCCC[C@@H]3c3ccccc3)N2C1=O (stereo in doubt) [Example 40]	–	< 3000	–	< 3000	< 3000	< 10000	< 10000	–
–	–	CN[C@@H](C)C(=O)N[C@H]1CN(C(=O)Nc2ccc(NC(=O)N3CC[C@H]4CC[C@@H](C(=O)N[C@H]5C[C@@H]5c5ccc(F)cc5)N4C(=O)[C@@H](NC(=O)[C@H](C)NC)C3)cc2)CC[C@H]2CC[C@@H](C(=O)N[C@H]3C[C@@H]3c3ccc(F)cc3)N2C1=O [Example 29]	< 5000	< 1000	< 5000	< 1000	< 1000	–	–	–
–	–	CN[C@@H](C)C(=O)N[C@H]1CN(C(=O)Nc2ccc(NC(=O)N3CC[C@H]4CC[C@@H](C(=O)N[C@H]5CCC[C@@H]5c5ccccc5)N4C(=O)[C@@H](NC(=O)[C@H](C)NC)C3)cc2)CC[C@H]2CC[C@@H](C(=O)N[C@H]3CCC[C@@H]3c3ccccc3)N2C1=O [Example 33]	< 1000	< 3000	< 1000	< 3000	< 3000	–	–	–
–	–	CN[C@@H](C)C(=O)N[C@H]1CN(C(=O)NCCCCCCNC(=O)N2CC[C@H]3CC[C@@H](C(=O)N[C@H]4CCC[C@@H]4c4ccccc4)N3C(=O)[C@@H](NC(=O)[C@H](C)NC)C2)CC[C@H]2CCC(C(=O)N[C@H]3CCC[C@@H]3c3ccccc3)N2C1=O (stereo in doubt) [Example 42]	< 1000	< 3000	< 1000	< 1000	< 1000	–	–	–
–	–	CN[C@@H](C)C(=O)N[C@H]1CN(C(=O)Nc2ccc(NC(=O)N3CC[C@H]4CC[C@@H](C(=O)N[C@@H]5CCC[C@H]5c5ccccc5)N4C(=O)[C@@H](NC(=O)[C@H](C)NC)C3)cc2)CC[C@H]2CC[C@@H](C(=O)N[C@@H]3CCC[C@H]3c3ccccc3)N2C1=O [Example 32]	< 1000	< 3000	< 1000	< 3000	< 3000	–	–	–
–	–	CN[C@@H](C)C(=O)N[C@H]1CN(C(=O)NCCCCCCNC(=O)N2CC[C@H]3CC[C@@H](C(=O)N[C@@H]4CCC[C@H]4c4ccccc4)N3C(=O)[C@@H](NC(=O)[C@H](C)NC)C2)CC[C@H]2CCC(C(=O)N[C@@H]3CCC[C@H]3c3ccccc3)N2C1=O (stereo in doubt) [Example 43]	< 1000	< 3000	< 1000	< 3000	< 3000	–	–	–
–	–	CN[C@@H](C)C(=O)N[C@H]1CN(C(=O)Nc2ccc(NC(=O)N3CC[C@H]4CC[C@@H](C(=O)N[C@@H]5CCCc6ccccc65)N4C(=O)[C@@H](NC(=O)[C@H](C)NC)C3)cc2)CC[C@H]2CCC(C(=O)N[C@@H]3CCCc4ccccc43)N2C1=O (stereo partly drawn) [Example 5]	< 100	< 100	< 100	< 100	< 10	–	–	–
–	–	CN[C@@H](C)C(=O)N[C@H]1CN(C(=O)Nc2ccc(NC(=O)N3CC[C@H]4CC[C@@H](C(=O)NC(c5ccccc5)c5ccccc5)N4C(=O)[C@@H](NC(=O)[C@H](C)NC)C3)cc2)CC[C@H]2CCC(C(=O)NC(c3ccccc3)c3ccccc3)N2C1=O (stereo partly drawn) [Example 2]	–	–	–	–	–	–	–	Tumor regression was achieved
–	–	CN[C@@H](C)C(=O)N[C@H]1CN(C(=O)Nc2ccc(NC(=O)N3CC[C@H]4CC[C@@H](C(=O)N[C@@H]5CCC[C@@H]5c5ccccc5)N4C(=O)[C@@H](NC(=O)[C@H](C)NC)C3)cc2)CC[C@H]2CC[C@@H](C(=O)N[C@@H]3CCC[C@@H]3c3ccccc3)N2C1=O [Example 34]	< 100	< 1000	< 100	< 1000	< 1000	–	–	–
< 1000	< 1000	CN[C@@H](C)C(=O)N[C@H]1CN(S(=O)(=O)CCC/C=C/CCCS(=O)(=O)N2CC[C@H]3CC[C@@H](C(=O)NC(c4ccccc4)c4ccccc4)N3C(=O)[C@@H](NC(=O)[C@H](C)NC)C2)CC[C@H]2CCC(C(=O)NC(c3ccccc3)c3ccccc3)N2C1=O (stereo partly drawn) [Example 8]	–	< 100	–	< 100	< 10	–	–	–
< 1000	< 1000	CN[C@@H](C)C(=O)N[C@H]1CN(S(=O)(=O)CCCCCCS(=O)(=O)N2CC[C@H]3CC[C@@H](C(=O)NC(c4ccccc4)c4ccccc4)N3C(=O)[C@@H](NC(=O)[C@H](C)NC)C2)CC[C@H]2CCC(C(=O)NC(c3ccccc3)c3ccccc3)N2C1=O (stereo partly drawn) [Example 9]	–	< 100	–	< 100	< 10	–	–	–

SMILES	IC50 [1, 9] [nM]	IC50 [3, 10] [nM]	IC50 [1, 7] [nM]	IC50 [2] [nM]	IC50 [3, 8] [nM]	IC50 [4] [nM]	IC50 [5] [nM]	IC50 ([1]; SK-OV-3 ovarian cancer cell line) [nM]	IC50 ([3]; MDA-MB-231 breast cancer cell line) [nM]	Antitumor activity (mean tumor volume) [6]
CN[C@@H](C)C(=O)N[C@H]1CN(C(=O)NCCCCCCCCNC(=O)N2CC[C@H]3CC[C@@H](C(=O)N[C@@H]4CCCc5ccccc54)N3C(=O)[C@@H](NC(=O)[C@H](C)NC)C2)CC[C@H]2CCC(C(=O)N[C@@H]3CCCc4ccccc43)N2C1=O (stereo partly drawn) [Example 4]	< 100	< 100	–	< 100	–	< 100	< 10	–	–	–
CN[C@@H](C)C(=O)N[C@H]1CN(C(=O)NCc2cccc(CNC(=O)N3CC[C@H]4CC[C@@H](C(=O)N[C@@H]5CCCc6ccccc65)N4C(=O)[C@@H](NC(=O)[C@H](C)NC)C3)c2)CC[C@H]2CCC(C(=O)N[C@@H]3CCCc4ccccc43)N2C1=O (stereo partly drawn) [Example 6]	< 100	< 100	–	< 100	–	< 100	< 10	–	–	–
